US4778912A, “Phospholipid derivatives” (priority 1985, dated 1988)
In brackets after ≈: the same amount, converted by molar mass. Entries after “also recorded” stand apart in the source; their conditions may differ. Like-named read-outs stand apart in the source and are kept apart here.

How the values were obtained:
[1] = background, cited from earlier work
mouse = settings: iv administration; cited from earlier work
platelet [2] = settings: cited from earlier work; for platelet activating / platelet aggregation action (in words): background
platelet [3] = experiment: Effect on platelet: platelet aggregation (PAF activity) in platelet rich plasma; assay type: cell-based, male rabbit; settings: Oryctolagus cuniculus, Table 5, rabbit PRP, 400,000 cells/1 μl, read-out: PAF activity EC50 (drug concentration causing 50% platelet aggregation)
Protocol: This PRP was further centrifuged at 3,000 r.p.m. for 15 minutes to obtain platelet poor plasma (PPP). By using this PPP, the PRP was diluted and so adjusted as to have a constant platelet concentration (400,000 cells/1 μl). […] Platelet aggregation was measured by using a platelet aggregometer (manufactured by Rika Denki Co. in Japan).

tumor = settings: background; cited from earlier work
Sarcoma 180 cells = experiment: Antitumor action in ICR mice inoculated intraperitoneally with Sarcoma 180 cells (life-span prolongation, 60-day survivors); assay type: in vivo; settings: for responders at 0.33 mg: read-out: 60th day: No. of survived mice/No. of tested mice (converted); for response vs control in vivo at 0.33 mg: read-out: Life-span prolongation ratio (T/C %)
Protocol: The assay was carried out under the same conditions as Test Example 1-i.

MM46 cells = experiment: Antitumor action in C3H/He mice inoculated intraperitoneally with MM46 cells (life-span prolongation, 60-day survivors); assay type: in vivo; settings: for responders at 0.25 mg: 1440 h, read-out: 60th day: No. of survived mice/No. of tested mice (converted); for response vs control in vivo at 0.25 mg: read-out: Life-span prolongation ratio (T/C %)
Protocol: (i) C3H/He mice (a group consisting of five mice) were inoculated intraperitoneally with 1×10^4 MM46 cells per mouse, and each mouse was intraperitoneally given 0.25 mg of drug for consecutive 4 days, starting from the second day after the inoculation.
(ii) In the above test, each mouse was inoculated intraperitoneally with 1×10^5 MM46 cells and 0.25 mg of drug was given intraperitoneally to each mouse for consecutive 4 days, starting from the second day after the inoculation.
The assay was carried out under the same conditions as Test Example 2-i.

[4] = test system: human myelogenous leukemia cells HL-60; experiment: Multiplication-inhibiting effect against human myelogenous leukemia cells HL-60; assay type: cell-based; settings: Table 4, read-out: Multiplication inhibition against HL-60 (IC50)
Protocol: Shown in Table 4 is the multiplication-inhibiting effect (IC50) of the compound of the present invention against human myelogenous leukemia cells HL-60. The assay was conducted according to the method of R. Gallo et al.: Blood, Vol 54, 713 (1979).

[5] = test system: PAF-induced platelet aggregation; experiment: Inhibition action against PAF in platelet aggregation (Washed PRP); assay type: cell-based, male rabbit; settings: Oryctolagus cuniculus
Protocol: Blood was collected from a male rabbit, using a syringe containing 3.15% of citric acid (at a ratio of 1 part to 9 parts of blood) as an anticoagulant and centrifuged at 1,000 r.p.m. at room temperature for 10 minutes to obtain platelet rich plasma (PRP). This PRP was further centrifuged at 1,400 r.p.m. for 15 minutes to obtain platelet pellet, which was then suspended in Ca^++ -free Tyrode (containing 0.25% of gelatin) to prepare Washed PRP. 250 μl of the Washed PRP was stirred at 37° C. for 2 minutes, and admixed with 25 μl of 0.2-0.5 mM Ca^++ solution, followed by stirring for another 30 seconds. Then, a test compound was added to the mixture to a concentration of 3×10^-5 M and after further stirring for 2 minutes, 3×10^-7 M of PAF was added to the mixture. Platelet aggregation was measured by using a platelet aggregometer (manufactured by Rika Denki Co. in Japan). The activity of the test compound was determined from an inhibition ratio for maximum transmission (i.e. maximum aggregation ratio) by PAF in the control PRP.
Inhibition activity against PAF in platelet aggregation was assayed under the same conditions as Test Example 5.

[6] = Sarcoma-180, 1440 h, Table 1, 0.33 mg/mouse ip, three times
[7] = Table 1, 1×10^5 Sarcoma 180 cells ip, 0.33 mg/mouse ip, three times (1 hour, 1 day, 2 days after inoculation), only mice surviving less than 60 days
[8] = Table 2, 1×10^4 MM46 cells, 0.25 mg/mouse ip, 4 days
[9] = Mus musculus, ip, Table 2, 1×10^4 MM46 cells ip, 0.25 mg/mouse ip for consecutive 4 days from second day, only mice surviving less than 60 days
[10] = Table 6, test compound 3×10^-5 M, PAF 3×10^-7 M, read-out: Inhibition ratio
[11] = Mus musculus, Sarcoma-180, ip, 1440 h, Table 7, same conditions as Test Example 1-i
[12] = Mus musculus, Sarcoma-180, ip, Table 7, same conditions as Test Example 1-i
[13] = Mus musculus, ip, Table 8, same conditions as Test Example 2-i
[14] = Table 10, same conditions as Test Example 5, read-out: Inhibition ratio

CCCCCCCCCCCCCCCCCCOCC(COP(=O)([O-])OCC[N+](C)(C)C)OC(C)=O (stereo not drawn) [Compound (II)]
side effects and toxicity (in words) ([1]; listed as PAF): neutrophil-activating, tissue-impairing, vessel-permeability enhancing, blood-pressure lowering, heart function inhibiting, bronchoconstrictor and other actions; also recorded: toxicity for warm-blooded animals is very high | fatal dose for a mouse (mouse): about 50 mg/kg | platelet activating / platelet aggregation action (in words) (platelet [2]): strong platelet aggregation action

CCCCCCCCCCCCCCCCCCOCC(COP(=O)([O-])OCC[N+](C)(C)C)OC (stereo not drawn) [Compound (III), reference compound]
side effects and toxicity (in words) [1]: both blood-pressure lowering and topically irritating actions are observed; also recorded: high degree of its toxicity | EC50 (platelet [3]): 30 µM | platelet activating / platelet aggregation action (in words) (platelet [2]): possess a platelet activating action | antitumor action (in words) (tumor): exhibit an antitumor action | life-span prolongation ratio compared with the control group (in words) (Sarcoma 180 cells; 1 mg/mouse, for its toxicity): smaller life-span prolongation ratio than the control group | responders at 0.33 mg (Sarcoma 180 cells; [6]): 0% | response vs control in vivo at 0.33 mg (Sarcoma 180 cells; [7]): 162% | responders at 0.25 mg (MM46 cells; [8]): 0% | response vs control in vivo at 0.25 mg (MM46 cells; [9]): 155%

CCCCCCCCCCCCCCCCCCOCC(COP(=O)([O-])OCC[N+](C)(C)C)OC(=O)CCC (stereo not drawn) [Compound (IV), reference compound]
platelet activating action relative to that of PAF (II) (platelet [2]; Thrombosis Research, 30, 143 (1983)): about 1/10 | responders at 0.33 mg (Sarcoma 180 cells; [6]): 0% | response vs control in vivo at 0.33 mg (Sarcoma 180 cells; [7]): 109%

CCCCCCCCCCCCCCCCCCOCC(COP(=O)([O-])OCC[N+](C)(C)C)OC(=O)N(C)C (stereo not drawn) [Compound (V)]
platelet activating / platelet aggregation action (in words) (platelet [2]): remarkably strong platelet activating activity

CCCCCCCCCCCCCCCCCCOCC(COP(=O)([O-])OCCCCCCCCCC[N+](C)(C)C)OC(=O)CC(C)=O (stereo not drawn) [Example 3, 2-(Acetoacetyloxy)-3-(octadecyloxy)propyl 10-trimethylammoniodecyl phosphate]
IC50 [4]: 1.5 µg/mL | inhibition at 30 µM [5, 10]: 72% | life-span prolongation ratio (T/C %) (Sarcoma 180 cells; 1 mg/mouse, otherwise as Test Example 1-i): 369% | number of survived mice on the 60th day (Sarcoma 180 cells; 1 mg/mouse, group of 5 mice): 2 mice | responders at 0.33 mg (Sarcoma 180 cells; [6]): 40% | response vs control in vivo at 0.33 mg (Sarcoma 180 cells; [7]): 326% | responders at 0.25 mg (MM46 cells; [8]): 80% | response vs control in vivo at 0.25 mg (MM46 cells; [9]): 132% | response vs control in vivo at 0.25 mg (MM46 cells; Mus musculus, ip, Table 3, 1×10^5 MM46 cells ip, 0.25 mg/mouse ip for consecutive 4 days, only mice surviving less than 60 days): 125% | 60th day: No. of survived mice/No. of treated mice (MM46 cells; Table 3, 1×10^5 MM46 cells, 0.25 mg/mouse ip, 4 days): 4/5

CCCCCCCCCCCCCCCCCCC(=O)COCC(COP(=O)([O-])OCCCCCCCCCC[N+](C)(C)C)OC (stereo not drawn) [Example 6, 2-Methoxy-3-(2-oxoeicocyloxy)propyl 10-trimethylammoniodecyl phosphate]
responders at 0.33 mg (Sarcoma 180 cells; [11]): 0% | response vs control in vivo at 0.33 mg (Sarcoma 180 cells; [12]): 242% | responders at 0.25 mg (MM46 cells; [13]): 80% | response vs control in vivo at 0.25 mg (MM46 cells; [13]): 145%

CCCCCCCCCCCCCCCCCCOCC(COP(=O)([O-])OCCCCCCCCCC[N+](C)(C)C)OC(=O)NC (stereo not drawn) [Example 8, 2-Methylcarbamoyloxy-3-octadecyloxypropyl 10-trimethylammoniodecyl phosphate]
inhibition at 30 µM [5, 14]: 100%

CCCCCCCCCCCCCCCCCCOCC(COP(=O)([O-])OCCCCCCCCCC[N+](C)(C)C)OC(=S)NC (stereo not drawn) [Example 9, 2-Methylthiocarbamoyloxy-3-octadecyloxypropyl 10-trimethylammoniodecyl phosphate]
inhibition at 30 µM [5, 14]: 55% | responders at 0.25 mg (MM46 cells; [13]): 40% | response vs control in vivo at 0.25 mg (MM46 cells; [13]): 170%

CCCCCCCCCCCCCCCCCCOCC(COP(=O)([O-])OCCCCCCCCCC[N+](C)(C)C)OC (stereo not drawn) [Example 10, 2-Methoxy-3-octadecyloxypropyl 10-trimethylammoniodecyl phosphate]
inhibition at 30 µM [5, 14]: 53% | responders at 0.33 mg (Sarcoma 180 cells; [11]): 0% | response vs control in vivo at 0.33 mg (Sarcoma 180 cells; [12]): 212% | responders at 0.25 mg (MM46 cells; [13]): 40% | response vs control in vivo at 0.25 mg (MM46 cells; [13]): 249%

CCCCCCCCCCCCCCCCCCNC(=O)OCC(COP(=O)([O-])OCCCCCCCCCC[N+](C)(C)C)OC (stereo not drawn) [Example 11, 3-Octadecylcarbamoyloxy-2-methoxypropyl 10-trimethylammoniodecyl phosphate]
responders at 0.33 mg (Sarcoma 180 cells; [11]): 0% | response vs control in vivo at 0.33 mg (Sarcoma 180 cells; [12]): 253% | responders at 0.25 mg (MM46 cells; [13]): 40% | response vs control in vivo at 0.25 mg (MM46 cells; [13]): 186%

CCCCCCCCCCCCCCCCCCOCC(COP(=O)([O-])OCCCCCCCCCC[N+](C)(C)C)OCC(C)=O (stereo not drawn) [Example 18, 3-(Octadecyloxy)-2-(2-oxopropyloxy)propyl 10-trimethylammoniodecyl phosphate]
EC50 (platelet [3]): > 100 µM | inhibition at 30 µM [5, 10]: 100%

CCCCCCCCCCCCCCCCCCOCC(COP(=O)([O-])OCCCCCCCC[N+](C)(C)C)OC(=O)CC(C)=O (stereo not drawn) [Example 29, 2-(Acetoacetoxy)-3-(octadecyloxy)propyl 8-trimethylammoniooctyl phosphate]
inhibition at 30 µM [5, 14]: 96%

COC(COCCCCCCCCCCCCC1CCCCC1)COP(=O)([O-])OCCCCCCCCCC[N+](C)(C)C (stereo not drawn) [Example 33, 3-(12-Cyclohexyldodecyloxy)-2-methoxypropyl 10-trimethylammoniodecyl phosphate]
inhibition at 30 µM [5, 14]: 100% | responders at 0.33 mg (Sarcoma 180 cells; [11]): 0% | response vs control in vivo at 0.33 mg (Sarcoma 180 cells; [12]): 266%

COC(COCCCCCCCCCCCCCCC(C)C)COP(=O)([O-])OCCCCCCCCCC[N+](C)(C)C (stereo not drawn) [Example 39, 2-Methoxy-3-(15-methylhexadecyloxy)propyl 10-trimethylammoniodecyl phosphate]
inhibition at 30 µM [5, 14]: 69% | responders at 0.33 mg (Sarcoma 180 cells; [11]): 0% | response vs control in vivo at 0.33 mg (Sarcoma 180 cells; [12]): 265%

CC(=O)CC(=O)OC(COCCCCCCCCCCCCCCC(C)C)COP(=O)([O-])OCCCCCCCCCC[N+](C)(C)C (stereo not drawn) [Example 43, 2-(Acetoacetyloxy)-3-(15-methylhexadecyloxy)propyl 10-trimethylammoniodecylphosphate]
inhibition at 30 µM [5, 14]: 100% | responders at 0.33 mg (Sarcoma 180 cells; [11]): 40% | response vs control in vivo at 0.33 mg (Sarcoma 180 cells; [12]): 128% | responders at 0.25 mg (MM46 cells; [13]): 0% | response vs control in vivo at 0.25 mg (MM46 cells; [13]): 232%

CCCCCCCCCCCCCCCCCCOCC(COP(=O)([O-])OCCCCCCCC[N+](C)(C)C)OC(=O)NC (stereo not drawn) [Example 44, 2-Methylcarbamoyloxy-3-octadecyloxypropyl 8-trimethylammoniooctyl phosphate]
inhibition at 30 µM [5, 14]: 100%

CCCCCCCCCCCCCCCCCCOCC(COP(=O)([O-])OCCCCCCCCCC[N+](C)(C)C)OCC(=O)O (stereo not drawn) [Example 46, 2-(Carboxymethyloxy)-3-(octadecyloxy)propyl 10-trimethylammoniodecyl phosphate]
responders at 0.33 mg (Sarcoma 180 cells; [11]): 0% | response vs control in vivo at 0.33 mg (Sarcoma 180 cells; [12]): 335% | responders at 0.25 mg (MM46 cells; [13]): 20% | response vs control in vivo at 0.25 mg (MM46 cells; [13]): 287%

CCCCCCCCCCCCCCCCCCOCC(COP(=O)([O-])OCC[N+](C)(C)C)OC(=O)CC(C)=O (stereo not drawn) [Reference compound 1, reference compound]
IC50 [4]: 6.6 µg/mL (≈ 11.1 µM) | inhibition at 30 µM [5, 10]: 0%

CCCCCCCCCCCCCCCCCCOCC(COP(=O)([O-])OCCC[N+](C)(C)C)OC(=O)CC(C)=O (stereo not drawn) [Reference compound 2, reference compound]
IC50 [4]: 11 µg/mL (≈ 18.1 µM) | inhibition at 30 µM [5, 10]: 0%

CCCCCCCCCCCCCCCCCCNC(=O)OCC(COP(=O)([O-])OCC[N+](C)(C)C)OC (stereo not drawn) [VI, reference compound]
antitumor action (in words) (tumor): not sufficient | responders at 0.33 mg (Sarcoma 180 cells; [6]): 0% | response vs control in vivo at 0.33 mg (Sarcoma 180 cells; [7]): 202%
